In ChEMBL document CHEMBL3872270, “Intelligent substance delivery into cells using cell-penetrating peptides” (Bioorg Med Chem Lett, 2017):

Assay: Cytotoxicity against human paclitaxel-resistant OVCA429 cells assessed as cell viability preincubated for 20 mins followed by wash and incubation in drug-free media for 72 hrs by MTT assay
Type: functional, cell-based

## CC(=O)O[C@H]1C(=O)[C@@]2(C)[C@H]([C@H](OC(=O)c3ccccc3)[C@]3(O)C[C@H](OC(=O)[C@H](OC(=O)CCCSSCCCCCCOP(=O)(OCCCCCCNC(=N)N)OCCOP(=O)(OCCCCCCNC(=N)N)OCCOP(=O)(OCCCCCCNC(=N)N)OCCOP(=O)(OCCCCCCNC(=N)N)OCCOP(=O)(OCCCCCCNC(=N)N)OCCOP(=O)(OCCCCCCNC(=N)N)OCCOP(=O)(OCCCCCCNC(=N)N)OCCOP(=O)(OCCO)OCCCCCCNC(=N)N)[C@@H](NC(=O)c4ccccc4)c4ccccc4)C(C)=C1C3(C)C)[C@]1(OC(C)=O)CO[C@@H]1C[C@@H]2O (stereo partly specified)
  EC50: 1400 nM
